Experimental data published in patent publication US9518254B2, “Compositions and methods for identifying enzyme and transport protein inhibitors” (San Diego State University Research Foundation, priority 2009, dated 2016).

Columns and labels:
HIV-1 protease (PR) [1] = assay type: cell-based; details: SupT1 PR/Gal4 clone, 1 μg/mL Dox; for inhibitor concentration resulting in eGFP activation: analyzed 50 hrs later, range tested 1 nM to 20 μM
[2] = tested on: tet-responsive element (TRE) / rtTA; test: Doxycycline activation titration of clonal SupT1 cells (Tet-On induction of eGFP reporter); assay type: cell-based
From the text: To obtain an inducible cell line, we utilized the tetracycline inducible system (Tet-On). For this purpose we constructed two lentiviral vectors; one harboring a 7× Tetracycline Response Element (TRE) upstream the gene of interest and another expressing the reverse tet-transactivator (rtTA) coupled to an IRES-mCherry cassette to corroborate rtTA expression. In this system, the TRE element is bound and activated by rtTA only in the presence of an inducer (Tet or Dox). Gal4, PR/Gal4 and PRm/Gal4 were all transferred into the TRE inducible vector (see Figures).
In order to optimize the assay for maximal Gal4, PR/Gal4 or PRm/Gal4 induction, we analyzed the effect of increasing levels of Dox. Cells with 0, 50, 100, 250, 500, 750, 1,000, and 2,000 ng/mL Dox were either treated with 10 uM DMSO or 10 uM Indinavir and analyzed 32 hours later. TRE-Gal4 cells reached saturation with Doxycycline at about 1,000 ng/mL whether Indinavir was present or not. […] Again, as with transiently transfected 293 cells, TRE-PR/Gal4 cells had little to non-detectable eGFP expression at any given Dox concentration in the absence of 10 μM Indinavir.
(§1) FIG. 22 graphically illustrates data determining the optimal conditions for activating the assay to screen for PR inhibition. FIG. 22A graphically illustrates a Doxycycline titration. Clonal SupT1 cells harboring an inducible Gal4, PR/Gal4 or PRm/Gal4 were pre-incubated in a 96 well plate with either DMSO or 10 μM Indinavir and then either left untreated, or activated with […] of Dox. Cells were analyzed by flow cytometry and gated to determine the number of cells positive for eGFP expression. FIG. 22B graphically illustrates a time course of eGFP Induction in response to Doxycyline activation in the presence of DMSO or a PI. SupT1 clones harboring Gal4, PR/Gal4, or PRm/Gal4 were pre-incubated in a 96 well plate with either DMSO or 10 μM Indinavir and then activated with 1 μg/mL Dox. Cells were analyzed at either 4, 8, 12, 16, 20, 25, 50 or 75 hours by flow cytometry and gated for eGFP positive expression.

HIV-1 protease (PR) [3] = assay type: cell-based
From the text: Finally, cells were infected with virus encoding the reporter, rtTA and inducible wild-type PR/Gal4 (pH-TRE-PR/Gal4) to test the ability for this system in T-cells to indicate the levels of PR activity.
Finally, individual cells from these sorted populations were sorted into a 96 well plate based on the lack of eGFP expression. Clonal cell lines obtained from this experiment were later activated under the same conditions described above, and screened for the individual clones which responded as desired (minimal background and maximal eGFP activation). […] These clones were then expanded and further tested in the following experiments.
To determine the optimal time point for the analysis of eGFP expression in the presence of inhibitor, cells were activated with Dox and analyzed by flow cytometry 4, 8, 12, 16, 20, 25, 50, or 75 hours later. Six-well plates containing 250K cells per well in 3 mL media were treated either with DMSO alone as control, or 1 μg/mL Dox and 10 μM Indinavir.
A 2 ml reaction containing 4 μl of 5 μg/mL Polybrene (Hexadimethrene Bromide, Sigma), 500K SupT1 cells in RPMI (10% FCS, L-glutamine, Pen-strep) and 250 μl frozen viral stocks was mixed, added to wells in 6-well plates, and spun in a hanging bucket rotors Becton Dickinson centrifuge at 1500 RPM, for 120′ at 32° C. Cells were re-suspended and placed in a 37° C. incubator for the analysis of expression at least 72 hours post-infection.
Flow Cytometry was performed on a BD FACSAria with 488 nm and 633 nm lasers. Data was collected on FACSDiva 6.1.1 software and then exported to FlowJo. eGFP expression was detected in the FITC channel and mCherry expression was detected on the PE-Texas-Red channel. Cells were first gated for size and granularity (FSC-A vs SSC-A) followed by doublet gating (FSC-A vs FSC-W and SSC-A vs. SSC-W). Sorted populations were gated on PE-TexasRed vs FITC plot. 250K cells were collected for each sample into 0.5 mL fetal calf serum (FCS) and 1 mL RPMI. Cells were then spun down at 1500 RPM and resuspended in fresh media in 6-well plates. Cells were allowed to grow for at least seven days to allow for expansion and loss of previously activated eGFP expression.
as §1

HIV-1 protease (PR) [4] = assay type: cell-based; details: HEK293T cells pre-treated with 10 uM inhibitor, co-transfected with reporter and pcDNA-PR/Gal4
Description: It was of critical importance to verify the ability for the PR/Gal4 fusion to activate the reporter eGFP by the addition of PR inhibitors. For that purpose, 293T cells were pre-treated with 10 μM Indinavir and then co-transfected with reporter and pcDNA-PR/Gal4 vectors.
293T cells were transfected as follows. 15 μl of 2 mg/mL Polyethylenimine linear 25 kD (Polysciences, Inc.) were added to 125 μl of DMEM in a 1.8 ml Eppendorf tube. 3 μg of each DNA was added drop-wise to each tube. Tubes were mixed and incubated for 20 min at RT. This mixture was then added drop-wise to 293T cells in a 10 cm plate at ˜60-75% confluence. Cells were then analyzed by fluorescence microscopy and/or flow cytometry 24 hrs post transfection.
Top Panel: Fluorescence microscopy of eGFP expression in HEK293T cells 24 hours post transfection with the reporter vector (pFR), or co-transfection with the reporter vector plus either the Gal4, PR/Gal4, or PRm/Gal4 vectors. Bottom panel: HEK293T cells were analyzed by flow cytometry at 24 hours post transfection with the same conditions top panel. Gates were drawn to determine the ability to identify cells with an active PI. […] Quantification of eGFP expression in HEK293T transfected with various assay elements. The numbers of cells under various conditions were quantified for eGFP levels indicative of PR inhibition. Results shown are an average of 3 experiments.

SupT1 cells [5] = details: human, 50 h
Description: (§2) The range chosen extended from 1 nM to 20 μM.
(§3) The selected SupT1 clone expressing rtTA and mCherry, the 5×UAS-eGFP reporter and an inducible PR/Gal4 were activated with 1 μg/mL and incubated with various concentrations (1, 10, 50, 100, 500, 1000, 5000, 10000 or 20000 ng/mL) of an FDA approved PI: Either Amprenavir, Atazanavir, Darunavir, Indinavir, Lopinavir, Nelfinavir, Ritonavir, Saquinavir, or Tipranavir. Cells were then analyzed 50 hrs later for eGFP expression as determined by flow cytometry on a BD FACSAria.

SupT1 cells [6] = test: Cell death in reporter SupT1 T-cell clones incubated with PR inhibitors; details: SupT1 PR/Gal4 clone, 50 hrs
Description: as §2, §3

HIV-1 protease (PR) [7] = test: Expression of GFP-PR fusion in cells transfected with pcDNA-GFP-PR (fluorescence microscopy); assay type: cell-based; details: inhibitor added at 0 and 24 h post transfection
From the text: In one embodiment, to achieve low levels of protease, e.g., PR, expression in mammalian cells, a tetracycline (Tet) inducible system is used. FIG. 3 illustrates by fluorescence microscopy use of an exemplary vector of the invention, a Tet-inducible HIV-based self-inactivating vector, that allows regulated expression of the gene of interest. In this case, we have used the enhanced green fluorescent protein (eGFP) as the ectopic gene. This vector allows different levels of protein expression. Tight repression and expression of PR at low levels may be crucial to avoid the possible side effects of PR. […] FIG. 3 illustrates by fluorescence microscopy HeLa cells infected with a Tet inducible HIV-based self-inactivating vector. The cells were incubated with 1 μg/ml Tet and eGFP expression was observed by fluorescence microscopy 24 and 72 h post addition of Tet. […]
In summary, FIG. 4 illustrates fluorescent microscopy analysis of cells transfected with pcDNA control (Invitrogen) and pcDNA-GFP-PR. GFP expression was analyzed 24 h post transfection. […]
In summary, FIG. 5 graphically illustrates flow cytometry analysis of cells expressing PR-GFP fusion. Cells transfected with pcDNA (control) or pcDNA-GFP-PR fusions were collected 48 hr post-transfection and analyzed for GFP expression. […]

## COC(=O)N[C@H](C(=O)N[C@@H](Cc1ccccc1)[C@@H](O)CN(Cc1ccc(-c2ccccn2)cc1)NC(=O)[C@@H](NC(=O)OC)C(C)(C)C)C(C)(C)C [Atazanavir]
HIV-1 protease (PR) [1]
  inhibitor concentration resulting in eGFP activation: 1 nM

## CC(C)CN(C[C@@H](O)[C@H](Cc1ccccc1)NC(=O)O[C@H]1CO[C@H]2OCC[C@H]21)S(=O)(=O)c1ccc(N)cc1 [Darunavir]
HIV-1 protease (PR) [1]
  inhibitor concentration resulting in eGFP activation: 1 nM

## C[C@H]1c2cccc(O)c2C(=O)C2=C(O)[C@]3(O)C(=O)C(C(N)=O)=C(O)[C@@H](N(C)C)[C@@H]3[C@@H](O)[C@@H]21 [Doxycycline]
[2]; TRE-Gal4 cells, with or without 10 uM Indinavir, 32 hours
  Dox concentration at saturation of eGFP induction: about 1,000 ng/mL
[2]; TRE-PR/Gal4 cells pre-incubated with 10 μM Indinavir, 32 hours
  Dox concentration at maximal eGFP induction: around 500 ng/mL
[2]; TRE-PRm/Gal4 cells, uninhibited and Indinavir-treated, 32 hours
  Dox concentration at saturation of eGFP induction: around 250 ng/mL
[2]; clonal SupT1 cells pre-incubated with DMSO or 10 μM Indinavir
  Dox concentration at which activation is saturated: around 1 μg/mL

## CC(C)(C)NC(=O)[C@@H]1CN(Cc2cccnc2)CCN1C[C@@H](O)C[C@@H](Cc1ccccc1)C(=O)N[C@H]1c2ccccc2C[C@H]1O [Indinavir]
HIV-1 protease (PR) [3]; SupT1 PR/Gal4 clones, Dox 1 μg/mL, PI 10 μM
  activation of PR/Gal4 clones (GFP positive): ~90%
HIV-1 protease (PR) [3]; SupT1 clone, 1 μg/mL Dox and 10 μM inhibitor
  time of initial induction of eGFP expression: 8 h
HIV-1 protease (PR) [3]; SupT1 clone, 1 μg/mL Dox and 10 μM inhibitor, 50 hours
  eGFP expression (positive cells) by 50 hours: ~100%
HIV-1 protease (PR) [3]; clonal SupT1 cells in 96-well plates, pre-incubation with 10 μM PI, Dox activation
  time at which activation of clones reaches max: around 48 hrs
HIV-1 protease (PR) [3]; non-clonal SupT1 cells with reporter, rtTA and pH-TRE-PR/Gal4, 1 μg/mL Dox and 10 μM inhibitor
  eGFP induction in presence of inhibitor: large induction of eGFP expression
HIV-1 protease (PR) [4]
  eGFP induction by PR/Gal4 fusion in presence of inhibitor: drastic induction
HIV-1 protease (PR) [1]; 50 hrs
  inhibitor concentration inducing nearly full activation of eGFP reporter: 5 µM
HIV-1 protease (PR) [1]; 50 hrs, compared with the other FDA-approved PIs
  level of reporter activation at low concentrations: lowest levels of reporter activation at low concentrations

## Cc1cccc(C)c1OCC(=O)N[C@@H](Cc1ccccc1)[C@@H](O)C[C@H](Cc1ccccc1)NC(=O)[C@H](C(C)C)N1CCCNC1=O [Lopinavir]
SupT1 cells [5]
  concentration resulting in significant cell death, with decline in number of eGFP positive cells: around 1 uM

## Cc1c(O)cccc1C(=O)N[C@@H](CSc1ccccc1)[C@H](O)CN1C[C@H]2CCCC[C@H]2C[C@H]1C(=O)NC(C)(C)C [Nelfinavir]
SupT1 cells [5]
  concentration resulting in significant cell death, with decline in number of eGFP positive cells: around 1 uM

## CC(C)(C)NC(=O)[C@@H]1C[C@@H]2CCCC[C@@H]2CN1C[C@@H](O)[C@H](Cc1ccccc1)NC(=O)[C@H](CC(N)=O)NC(=O)c1ccc2ccccc2n1 [Saquinavir]
SupT1 cells [6]
  concentration with significant decline in the number of eGFP positive cells (cell death): 20 µM
HIV-1 protease (PR) [7]
  expression of N-terminal GFP-PR fusion in presence of inhibitor: highly expressed

## CCC[C@@]1(CCc2ccccc2)CC(O)=C([C@H](CC)c2cccc(NS(=O)(=O)c3ccc(C(F)(F)F)cn3)c2)C(=O)O1 [Tipranavir]
HIV-1 protease (PR) [1]; 50 hrs
  inhibitor concentration inducing nearly full activation of eGFP reporter: 5 µM
